In patent US11685719B2, “Pyridinone MK2 inhibitors and uses thereof” (Xinthera, Inc., priority 2021, dated 2023):
Like-named read-outs stand apart in the source and are kept apart here.

How the values were obtained:
p38a/PRAK = p38a/PRAK (Homo sapiens (Human), UniProt Q16539); assay: biochemical; details: 10-point 1:3 dilution, top dose 300 μM; 10 μM ATP, 2 h incubation; read-out: p38a/PRAK Enzyme pIC50 (converted)
Experimental: (§1) Expression vectors of the recombinant MK2 and PRAK kinases were constructed by cloning of the codon optimized gene sequences of MK2 (Uniprot ID P49137, amino acid fragment F46-H400), or PRAK (Uniprot ID Q81W41, amino acid fragment M1-Q471) into pGEX-4T1 (GE) for over expression of these kinases with N-terminal GST-tag. Protein expression was carried out in E. coli BL21 by growing the hosts in TB medium, induction of protein expression with 0.5 mM IPTG at approximate 0.8 OD600, and incubation of the cultures at 18° C. for 14-20 hours afterwards. The harvested cells were resuspended in […] of Lysis buffer (50 mM Tris-HCl, pH 8.0, 500 mM NaCl, 1 mM DTT, 5% glycerol, and 1 mM PMSF) per gram of wet cell mass and homogenized at 4° C. in a microfluidizer (ATS, Suzhou, China) at 14,000 psi pressure, 3 passes. The cell lysates were clarified by centrifugation and the supernatants containing the GST-fusion proteins were purified by affinity chromatography using GSH-Sepharose (GE) gravity flow columns pre-equilibrated in Buffer A (50 mM Tris-HCl, pH 8.0, 500 mM NaCl, 1 mM DTT, and 5% glycerol). After thorough washing of the columns with Buffer A, the bound GST-proteins were eluted by Buffer B (50 mM Tris, pH 8.0, 500 mM NaCl, 1 mM DTT, 5% glycerol, 10 mM glutathione), followed by size-exclusion purification on Superdex 200 column equilibrated in Buffer A. The purified proteins were concentrated to approximately 1 mg/ml and stored at −80° C.
(§2) This study evaluates the inhibitory potency of invention compound on p38/MK2 pathway vs p38/PRAK pathway. More specially the compound concentration (IC50) was determined that inhibited half of the maximal activation of MK2 or PRAK by p38. MK2 activation study was set up without or with a serial of 10-point 1:3 dilution of invention compound at top dose of 1 or 10 μM, and PRAK activation study was set up without or with a serial of 10-point 1:3 dilution of invention compound at top dose of 300 μM. The MIK2 and PRAK activity were determined by the phosphorylation level of HSP27 peptide conjugated with FITC.

p38a/MK2 = p38a/MK2 (Homo sapiens (Human), UniProt P49137+Q16539); assay: biochemical; details: 10-point 1:3 dilution, 10 μM ATP, 2 h incubation
Sequence of p38a/MK2 (Q16539 whole entry): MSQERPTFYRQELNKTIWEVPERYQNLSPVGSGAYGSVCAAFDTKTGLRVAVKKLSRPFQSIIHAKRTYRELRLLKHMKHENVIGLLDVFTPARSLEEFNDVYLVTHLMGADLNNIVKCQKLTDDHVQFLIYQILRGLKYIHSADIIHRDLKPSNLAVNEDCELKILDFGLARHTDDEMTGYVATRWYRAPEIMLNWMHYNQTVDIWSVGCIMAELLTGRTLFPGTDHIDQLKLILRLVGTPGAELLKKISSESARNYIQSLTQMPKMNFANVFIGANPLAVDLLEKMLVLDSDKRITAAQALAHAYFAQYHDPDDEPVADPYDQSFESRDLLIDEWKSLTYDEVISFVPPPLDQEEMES
Sequence of p38a/MK2 (P49137 46-400): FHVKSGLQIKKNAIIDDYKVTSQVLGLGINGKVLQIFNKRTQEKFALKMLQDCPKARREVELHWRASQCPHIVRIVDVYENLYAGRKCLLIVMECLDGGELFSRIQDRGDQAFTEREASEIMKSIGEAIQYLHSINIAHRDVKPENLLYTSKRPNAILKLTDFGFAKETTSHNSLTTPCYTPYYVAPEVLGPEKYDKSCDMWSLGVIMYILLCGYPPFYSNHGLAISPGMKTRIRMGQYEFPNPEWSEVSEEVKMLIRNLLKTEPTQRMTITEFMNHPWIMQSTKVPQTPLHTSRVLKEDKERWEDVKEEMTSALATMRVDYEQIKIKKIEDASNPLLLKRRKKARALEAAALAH
Experimental: as §1, §2

[1] = top dose 1 μM, read-out: p38a/MK2 (1 μM) Enzyme pIC50 (converted)
[2] = top dose 10 μM, read-out: p38a/MK2 (10 μM) Enzyme pIC50 (converted)

Sequence of p38a/PRAK (Q16539 whole entry, the tested form may be a part): as the sequence (Q16539 whole entry) above

Compound	IC50 (p38a/PRAK) [nM]	IC50 (p38a/MK2; [1]) [nM]	IC50 (p38a/MK2; [2]) [nM]
CCOC(=O)C(C)(C)n1nc(-c2cc(-n3c(C)cc(OCc4ncc(F)cc4F)c(Cl)c3=O)c(C)cn2)ccc1=O (atropisomer, axis not shown) [Example 6, ethyl 2-(3-{3-chloro-4-[(3,5-difluoropyridin-2-yl)methoxy]-5′,6-dimethyl-2-oxo-[1,4′-bipyridin]-2′-yl}-6-oxopyridazin-1-yl)-2-methylpropanoate]	6310	20	–
Cc1cnc(-n2cccc(C(C)(C)O)c2=O)cc1-n1c(C)cc(OCc2ncc(F)cc2F)c(Cl)c1=O (single isomer, unassigned) [Example 1A, rel-3-chloro-4-[(3,5-difluoropyridin-2-yl)methoxy]-2′-[3-(2-hydroxypropan-2-yl)-2-oxopyridin-1-yl]-5′,6-dimethyl-[1,4′-bipyridin]-2-one]	3160	2	3.16
Cc1cnc(-n2cccc(C(C)(C)O)c2=O)cc1-n1c(C)cc(OCc2ncc(F)cc2F)c(Cl)c1=O (single isomer, unassigned) [Example 1B, rel-3-chloro-4-[(3,5-difluoropyridin-2-yl)methoxy]-2′-[3-(2-hydroxypropan-2-yl)-2-oxopyridin-1-yl]-5′,6-dimethyl-[1,4′-bipyridin]-2-one]	> 316000	–	398
Cc1ccc(-n2cccc(C(C)(C)O)c2=O)cc1-n1c(C)cc(OCc2ncc(F)cc2F)c(Cl)c1=O (single isomer, unassigned) [Example 2A, rel-3-chloro-4-[(3,5-difluoropyridin-2-yl)methoxy]-1-{5-[3-(2-hydroxypropan-2-yl)-2-oxopyridin-1-yl]-2-methylphenyl}-6-methylpyridin-2-one]	1260	3.98	–
Cc1ccc(-n2cccc(C(C)(C)O)c2=O)cc1-n1c(C)cc(OCc2ncc(F)cc2F)c(Cl)c1=O (single isomer, unassigned) [Example 2B, rel-3-chloro-4-[(3,5-difluoropyridin-2-yl)methoxy]-1-{5-[3-(2-hydroxypropan-2-yl)-2-oxopyridin-1-yl]-2-methylphenyl}-6-methylpyridin-2-one]	> 316000	> 1000	–
COCc1cc(OCc2ncc(F)cc2F)c(Cl)c(=O)n1-c1cc(-n2cccc(C(C)(C)O)c2=O)ncc1C (single isomer, unassigned) [Example 3A, rel-3-chloro-4-[(3,5-difluoropyridin-2-yl)methoxy]-2′-[3-(2-hydroxypropan-2-yl)-2-oxopyridin-1-yl]-6-(methoxymethyl)-5′-methyl-[1,4′-bipyridin]-2-one]	5010	6.31	–
COCc1cc(OCc2ncc(F)cc2F)c(Cl)c(=O)n1-c1cc(-n2cccc(C(C)(C)O)c2=O)ncc1C (single isomer, unassigned) [Example 3B, rel-3-chloro-4-[(3,5-difluoropyridin-2-yl)methoxy]-2′-[3-(2-hydroxypropan-2-yl)-2-oxopyridin-1-yl]-6-(methoxymethyl)-5′-methyl-[1,4′-bipyridin]-2-one]	> 316000	> 1000	–
Cc1cnc(-n2cccc(C(C)(C)O)c2=O)cc1-n1c(C)cc(OCc2ncc(Cl)cc2F)c(Cl)c1=O (single isomer, unassigned) [Example 4A, rel-3-chloro-4-[(5-chloro-3-fluoropyridin-2-yl)methoxy]-2′-[3-(2-hydroxypropan-2-yl)-2-oxopyridin-1-yl]-5′,6-dimethyl-[1,4′-bipyridin]-2-one]	5010	2	–
Cc1cnc(-n2cccc(C(C)(C)O)c2=O)cc1-n1c(C)cc(OCc2ncc(Cl)cc2F)c(Cl)c1=O (single isomer, unassigned) [Example 4B, rel-3-chloro-4-[(5-chloro-3-fluoropyridin-2-yl)methoxy]-2′-[3-(2-hydroxypropan-2-yl)-2-oxopyridin-1-yl]-5′,6-dimethyl-[1,4′-bipyridin]-2-one]	> 316000	> 1000	–
Cc1cnc(-n2cccc(C(C)(C)O)c2=O)cc1-n1c(C)cc(OCc2ncc(F)cc2Cl)c(Cl)c1=O (single isomer, unassigned) [Example 7A, rel-3-chloro-4-[(3-chloro-5-fluoropyridin-2-yl)methoxy]-2′-[3-(2-hydroxypropan-2-yl)-2-oxopyridin-1-yl]-5′,6-dimethyl-[1,4′-bipyridin]-2-one]	7940	1	–
Cc1cnc(-n2cccc(C(C)(C)O)c2=O)cc1-n1c(C)cc(OCc2ncc(F)cc2Cl)c(Cl)c1=O (single isomer, unassigned) [Example 7B, rel-3-chloro-4-[(3-chloro-5-fluoropyridin-2-yl)methoxy]-2′-[3-(2-hydroxypropan-2-yl)-2-oxopyridin-1-yl]-5′,6-dimethyl-[1,4′-bipyridin]-2-one]	> 316000	> 1000	–
Cc1cnc(-n2cccc(C3CCOCC3)c2=O)cc1-n1c(C)cc(OCc2ncc(F)cc2F)c(Cl)c1=O (single isomer, unassigned) [Example 8A, rel-3-chloro-4-[(3,5-difluoropyridin-2-yl)methoxy]-5′,6-dimethyl-2′-[3-(oxan-4-yl)-2-oxopyridin-1-yl]-[1,4′-bipyridin]-2-one]	2510	0.794	–
Cc1cnc(-n2cccc(C3CCOCC3)c2=O)cc1-n1c(C)cc(OCc2ncc(F)cc2F)c(Cl)c1=O (single isomer, unassigned) [Example 8B, rel-3-chloro-4-[(3,5-difluoropyridin-2-yl)methoxy]-5′,6-dimethyl-2′-[3-(oxan-4-yl)-2-oxopyridin-1-yl]-[1,4′-bipyridin]-2-one]	> 316000	> 1000	–

Now from value to compound, other results behind:

IC50 (p38a/PRAK) [nM]	IC50 (p38a/MK2; [1]) [nM]	Compound	IC50 (p38a/MK2; [2]) [nM]
2510	2.51	Cc1cnc(-n2ccnc(C(C)(C)O)c2=O)cc1-n1c(C)cc(OCc2ncc(F)cc2F)c(Cl)c1=O (single isomer, unassigned) [Example 5A, rel-3-chloro-4-[(3,5-difluoropyridin-2-yl)methoxy]-2′-[3-(2-hydroxypropan-2-yl)-2-oxopyrazin-1-yl]-5′,6-dimethyl-[1,4′-bipyridin]-2-one]	–
> 316000	> 1000	Cc1cnc(-n2ccnc(C(C)(C)O)c2=O)cc1-n1c(C)cc(OCc2ncc(F)cc2F)c(Cl)c1=O (single isomer, unassigned) [Example 5B, rel-3-chloro-4-[(3,5-difluoropyridin-2-yl)methoxy]-2′-[3-(2-hydroxypropan-2-yl)-2-oxopyrazin-1-yl]-5′,6-dimethyl-[1,4′-bipyridin]-2-one]	–
2000	12.6	Cc1cnc(-n2nccc(C(C)(C)O)c2=O)cc1-n1c(C)cc(OCc2ncc(F)cc2F)c(Cl)c1=O (single isomer, unassigned) [Example 9A, rel-3-chloro-4-[(3,5-difluoropyridin-2-yl)methoxy]-2′-[5-(2-hydroxypropan-2-yl)-6-oxopyridazin-1-yl]-5′,6-dimethyl-[1,4′-bipyridin]-2-one]	–
> 316000	> 1000	Cc1cnc(-n2nccc(C(C)(C)O)c2=O)cc1-n1c(C)cc(OCc2ncc(F)cc2F)c(Cl)c1=O (single isomer, unassigned) [Example 9B, rel-3-chloro-4-[(3,5-difluoropyridin-2-yl)methoxy]-2′-[5-(2-hydroxypropan-2-yl)-6-oxopyridazin-1-yl]-5′,6-dimethyl-[1,4′-bipyridin]-2-one]	–
3980	100	Cc1cnc(-n2cncc(C(C)(C)O)c2=O)cc1-n1c(C)cc(OCc2ncc(F)cc2F)c(Cl)c1=O (single isomer, unassigned) [Example 10A, rel-3-chloro-4-[(3,5-difluoropyridin-2-yl)methoxy]-2′-[5-(2-hydroxypropan-2-yl)-6-oxopyrimidin-1-yl]-5′,6-dimethyl-[1,4′-bipyridin]-2-one]	–
15800	–	Cc1cnc(-n2cc(C(C)(C)O)ccc2=O)cc1-n1c(C)cc(OCc2ncc(F)cc2F)c(Cl)c1=O (single isomer, unassigned) [Example 13B, rel-3-chloro-4-[(3,5-difluoropyridin-2-yl)methoxy]-2′-[5-(2-hydroxypropan-2-yl)-2-oxopyridin-1-yl]-5′,6-dimethyl-[1,4′-bipyridin]-2-one]	–
